Measurements taken from patent US5057146A (priority 1986, dated 1991).
Where two headings read alike, the source gives them in different places.

Assays:
Pyricularia oryzae = type: in vivo, Pyricularia oryzae (rice)
Erysiphe graminis hordei = assay: foliar fungal disease control, Erysiphe graminis hordei on barley; type: in vivo; conditions: inoculated 24 hours before treatment
Method: (§1) The compounds were tested against a variety of foliar fungal diseases of plants. The technique employed was as follows.
(§2) The plants were grown in John Innes Potting Compost (No 1 or 2) in 4 cm diameter minipots. The test compounds were formulated either by bead milling with aqueous Dispersol T or as a solution in acetone or acetone/ethanol which was diluted to the required concentration immediately before use. […] The sprays were applied to maximum retention and the root drenches to a final concentration equivalent to approximately 40 ppm a.i./dry soil. Tween 20, to give a final concentration of 0.05%, was added when the sprays were applied to cereals.
(§3) For most of the tests the compound was applied to the soil (roots) and to the foliage (by spraying) one or two days before the plant was inoculated with the disease. An exception was the test on Erysiphe graminis in which the plants were inoculated 24 hours before treatment. Foliar pathogens were applied by spray as spore suspensions onto the leaves of test plants. After inoculation, the plants were put into an appropriate environment to allow infection to proceed and then incubated until the disease was ready for assessment. The period between inoculation and assessment varied from four to fourteen days according to the disease and environment.
(§4) The disease control was recorded by the following grading: […]

Venturia inaequalis = assay: foliar fungal disease control, Venturia inaequalis on apple; type: in vivo
Method: as §1, §2, §3, §4

Phytophthora infestans = type: in vivo, Phytophthora infestans (tomato)
Cercospora arachidicola = assay: foliar fungal disease control, Cercospora arachidicola on peanut; type: in vivo
Method: as §1, §2, §3, §4

Puccinia recondita = assay: foliar fungal disease control, Puccinia recondita on wheat; type: in vivo
Method: as §1, §2, §3, §4

Plasmopara viticola = assay: foliar fungal disease control, Plasmopara viticola on vine; type: in vivo
Method: as §1, §2, §3, §4

[1] = 100 ppm foliar spray plus root drench approx. 40 ppm a.i./dry soil

SMILES	disease control grading, Pyricularia oryzae (rice) (Pyricularia oryzae; [1])	disease control grading, Erysiphe graminis hordei (barley) (Erysiphe graminis hordei; [1])	disease control grading, Venturia inaequalis (apple) (Venturia inaequalis; [1])	disease control grading, Phytophthora infestans (tomato) (Phytophthora infestans; [1])	disease control grading, Cercospora arachidicola (peanut) (Cercospora arachidicola; [1])	disease control grading, Puccinia recondita (wheat) (Puccinia recondita; [1])	disease control grading, Plasmopara viticola (vine) (Plasmopara viticola; [1])	other results
CO/C=C(/C(=O)OC)c1ccccc1Oc1ncc(Cl)cn1 [Compound 67 (Table I)]								disease control grading, Pyricularia oryzae (rice) (Pyricularia oryzae; 40 ppm foliar spray only): 0 (60-100% of disease on untreated plants); disease control grading, Erysiphe graminis hordei (barley) (Erysiphe graminis hordei; 40 ppm foliar spray only): 2 (6-25% of disease on untreated plants); disease control grading, Venturia inaequalis (apple) (Venturia inaequalis; 40 ppm foliar spray only): 0 (60-100% of disease on untreated plants); disease control grading, Phytophthora infestans (tomato) (Phytophthora infestans; 40 ppm foliar spray only): 0 (60-100% of disease on untreated plants); disease control grading, Cercospora arachidicola (peanut) (Cercospora arachidicola; 40 ppm foliar spray only): 4; disease control grading, Puccinia recondita (wheat) (Puccinia recondita; 40 ppm foliar spray only): 3 (trace-5% of disease on untreated plants); disease control grading, Plasmopara viticola (vine) (Plasmopara viticola; 40 ppm foliar spray only): 4
CO/C=C(/C(=O)OC)c1ccccc1Oc1nc(F)cc(F)n1 [Compound 137 (Table I)]	0 (60-100% of disease on untreated plants)	0 (60-100% of disease on untreated plants)	4	0 (60-100% of disease on untreated plants)	0 (60-100% of disease on untreated plants)	2 (6-25% of disease on untreated plants)	0 (60-100% of disease on untreated plants)	
CO/C=C(/C(=O)OC)c1ccccc1Oc1ccc([N+](=O)[O-])cn1 [Compound 133 (Table I), (E)-methyl 2-[2'-(5"-nitropyridin-2"-yloxy)phenyl]-3-methoxyacrylate]	4	4	4	0 (60-100% of disease on untreated plants)		4	4	
CO/C=C(/C(=O)OC)c1ccccc1[S+]([O-])c1ccc(Br)cn1 (centres unmarked) [Compound 1 (Table III), (E)--methyl 2-(2'-(5"-bromopyridin-2"-ylsulphinyl)phenyl]-3-methoxyacrylate]								disease control grading, Pyricularia oryzae (rice) (Pyricularia oryzae; 25 ppm foliar spray only): 0 (60-100% of disease on untreated plants); disease control grading, Erysiphe graminis hordei (barley) (Erysiphe graminis hordei; 25 ppm foliar spray only): 0 (60-100% of disease on untreated plants); disease control grading, Venturia inaequalis (apple) (Venturia inaequalis; 25 ppm foliar spray only): 3 (trace-5% of disease on untreated plants); disease control grading, Phytophthora infestans (tomato) (Phytophthora infestans; 25 ppm foliar spray only): 0 (60-100% of disease on untreated plants); disease control grading, Cercospora arachidicola (peanut) (Cercospora arachidicola; 25 ppm foliar spray only): 0 (60-100% of disease on untreated plants); disease control grading, Puccinia recondita (wheat) (Puccinia recondita; 25 ppm foliar spray only): 0 (60-100% of disease on untreated plants); disease control grading, Plasmopara viticola (vine) (Plasmopara viticola; 25 ppm foliar spray only): 0 (60-100% of disease on untreated plants)
CO/C=C(/C(=O)OC)c1ccccc1Oc1cc(F)nc(F)n1 [Compound 138 (Table I)]	0 (60-100% of disease on untreated plants)	0 (60-100% of disease on untreated plants)	3 (trace-5% of disease on untreated plants)	0 (60-100% of disease on untreated plants)	0 (60-100% of disease on untreated plants)	4	4	
CO/C=C(/C(=O)OC)c1ccccc1Sc1ccc(Cl)cn1 [Compound 14 (Table II), (E-)-methyl 2-[2'-(5"-chloropyridin-2"-ylthio)phenyl]-3-methoxyacrylate]	3 (trace-5% of disease on untreated plants)	4	4	0 (60-100% of disease on untreated plants)	4	4	4	
CO/C=C(/C(=O)OC)c1ccccc1Oc1nccc(Cl)n1 [Compound 61 (Table I), (E)-methyl 2-[2'-(4"-chloropyrimidin-2"-yloxy)phenyl]-3-methoxyacrylate]	0 (60-100% of disease on untreated plants)	4	4	0 (60-100% of disease on untreated plants)	4	3 (trace-5% of disease on untreated plants)	1 (26-59% of disease on untreated plants)	
CO/C=C(/C(=O)OC)c1ccccc1S(=O)(=O)c1ccc(Br)cn1 [Compound 2 (Table III), (E)-meth-yl 2-(2'-(5"-bromopyridin-2"-ylsulphonyl)phenyl]-3-methoxyacrylate]	0 (60-100% of disease on untreated plants)	0 (60-100% of disease on untreated plants)	3 (trace-5% of disease on untreated plants)	0 (60-100% of disease on untreated plants)	0 (60-100% of disease on untreated plants)	3 (trace-5% of disease on untreated plants)	0 (60-100% of disease on untreated plants)	
CO/C=C(/C(=O)OC)c1ccccc1Oc1cccc(C)n1 [Compound 21 (Table I)]	4	4	4	3 (trace-5% of disease on untreated plants)	4	3 (trace-5% of disease on untreated plants)	4	
CO/C=C(/C(=O)OC)c1ccccc1Oc1ccc(C)cn1 [Compound 16 (Table I)]	4	4	4	4	4	2 (6-25% of disease on untreated plants)	4	
CO/C=C(/C(=O)OC)c1ccccc1Oc1cc(Cl)nc(Cl)n1 [Compound 140 (Table I)]	0 (60-100% of disease on untreated plants)	0 (60-100% of disease on untreated plants)	0 (60-100% of disease on untreated plants)	0 (60-100% of disease on untreated plants)	0 (60-100% of disease on untreated plants)	2 (6-25% of disease on untreated plants)	4	
CO/C=C(/C(=O)OC)c1ccccc1Oc1cc(C(F)(F)F)ccn1 [Compound 11 (Table I)]								disease control grading, Pyricularia oryzae (rice) (Pyricularia oryzae; 25 ppm foliar spray only): 2 (6-25% of disease on untreated plants); disease control grading, Erysiphe graminis hordei (barley) (Erysiphe graminis hordei; 25 ppm foliar spray only): 4; disease control grading, Venturia inaequalis (apple) (Venturia inaequalis; 25 ppm foliar spray only): 4; disease control grading, Phytophthora infestans (tomato) (Phytophthora infestans; 25 ppm foliar spray only): 4; disease control grading, Cercospora arachidicola (peanut) (Cercospora arachidicola; 25 ppm foliar spray only): 0 (60-100% of disease on untreated plants); disease control grading, Puccinia recondita (wheat) (Puccinia recondita; 25 ppm foliar spray only): 3 (trace-5% of disease on untreated plants); disease control grading, Plasmopara viticola (vine) (Plasmopara viticola; 25 ppm foliar spray only): 4
CO/C=C(/C(=O)OC)c1ccccc1Oc1cc(F)nc(Cl)c1 [Compound 167 (Table I)]	3 (trace-5% of disease on untreated plants)	4	4		0 (60-100% of disease on untreated plants)	4	4	
